Experimental data as given in patent US20160090351A1, “INHIBITORS OF DEUBIQUITINATING PROTEASES” (BRANDEIS UNIVERSITY, priority 2013, published 2016).

Tests used:
[1] = tested on: DUBs; experiment: decomposition of high molecular weight ubiquitinated proteins (HMW-Ub) in lysates of HEK 293T cells expressing HA-Ub; assay type: biochemical, human; settings: for DUB inhibitory activity, SAR in words: relative to C4 or parent analog
Protocol: FIG. 30 depicts data showing that diphenylcarbonates inhibit the decomposition of high molecular weight ubiquitinated proteins (HMW-Ub). Lysates were prepared from HEK 293T cells expressing HA-ubiquitin. Samples were incubated at 37° C. and reactions were quenched by the addition of reducing Laemmli buffer. HMW-Ub was assessed by SDS-PAGE and immunoblotting with anti-HA antibody. A. Representative immunoblots measuring the decomposition of HMW-Ub in lysates treated with either the DMSO vehicle, G5 (10 μM) or C4 (500 μM). B. Plot of the decomposition of HMW-Ub in lysates treated with DMSO and C4 (500 μM) (N=2; error bars denote range). C. Inhibition of HMW-Ub decomposition by diphenylcarbonates. Lysates were treated with diphenylcarbonates (50 μM). “-” denotes no treatment; D, 1% DMSO vehicle; IU1, an USP14-specific inhibitor; Bort, bortezomib, a proteasome inhibitor. D. Representative decomposition of HMW-Ub after 2 h incubation in the presence of varying concentrations of C4. See also FIG. 36. E. Quantitation of D. The values of EC50 reported in FIG. 29B are the average and S.E.M. of at least 3 independent experiments. See also FIG. 37 and FIG. 38.
Cells overexpressing HA-ubiquitin were prepared as above. Pellets were typically stored at −80° C. until required, at which time they were thawed on ice. Cell lysis was performed in lysis buffer using a Dounce homogenizer (10 strokes, with grinding, on ice: typical yield approx. 2-5 mg protein per transfected T75 flask for HEK 293T cells; 1-3 mg protein from a T75 flask for Cos-1). Crude lysate was centrifuged at 17000 g for 10 min at 4° C., after which time the concentration of the lysate was normalized to 1 mg/mL. The lysate was aliquoted into PCR strip tubes (typical volumes 75-50 μL) and compound in DMSO was added to this to give a final concentration of DMSO of 1%. Tubes were briefly centrifuged, overlaid with Chill-out wax (50 μL) and placed in a PCR machine at 37° C. with heated lid set to 37° C. Aliquots (9 μL) were removed at the stated times and immediately quenched in (2× final concentration) reducing (dithiothreitol) loading buffer and frozen (−19° C.) till required. Western blot analysis was carried out using standard methods. Samples were resolved by SDS-PAGE, transferred to PVDF [(0.45 μm) (Towbin buffer, tank apparatus, 90 V 1 hour, then overnight at 30 V, 4° C.)] then blocked in 15% milk in TBS-T HS (100 mM Tris HCl, pH 7.6, 500 mM NaCl, 0.5% […]) for at least 2 hours at RT. Afterward, membrane was washed in TBS-T HS then probed with anti HA-HRP (1:18000) for 1.33 hours at RT. Membrane was washed 3 times in TBS-T HS (15 mins) then once in TBS (15 mins) and exposed to ECL II and visualized using blue biofilm. […] When required, membranes were stripped in 100 mM glycine pH 4, 500 mM NaCl, 1% SDS, 5 mM BME, at 55° C. for 19 mins, then analyzed.
Lysates were prepared from HEK 293T cells expressing N-terminally HA-tagged ubiquitin (HA-Ub) to facilitate the observation of ubiquitinated proteins. In the absence of a DUB inhibitor, the HMW-Ub pool decomposed with a half-life of 34 min (FIG. 30A,B). […] Similar results were obtained in lysates prepared from Cos-1 cells expressing HA-Ub.

[2] = tested on: USP9x, USP19, USP7/8, USP28/15; experiment: HA-Ub-VS activity profiling in cell lysates, USPs; assay type: biochemical, human; settings: for HA-Ub-VS labeling of USPs: HEK 293T lysates
Protocol: HA-ubiquitin vinylsulfone (HA-Ub-VS) irreversibly labels DUBs by modifying the catalytic cysteine residue Inhibition of the DUB prevents HA-Ub-VS labeling and the band is. […] The interaction with UCHL1/3 is reversible.
Lysate labeling assay on untransfected cells (1.5 mg/mL) was run with the stated concentration of inhibitor (or 1% DMSO control) for between 19-60 mins. After this time HA-Ub-VS (1.5-0.7 μM) was added and incubated for 19 mins. After this time reaction mixture (9 μL) was removed and quenched in 2× (final concentration) reducing loading buffer. For recovery experiments, a lysate of 6 mg/mL was treated with saturating compound C14 (250 μM) and incubated for 40 mins. Afterward, the lysate was diluted to 0.6 mg/mL (final concentration of inhibitor 25 μM) in lysis buffer (final volume 100 μL), then HA-Ub-VS was added. Aliquots (15 μL) were removed at the stated time (5-119 mins) and immediately quenched in 2× (final concentration) reducing loading buffer. For all HA-Ub-VS experiments samples in loading buffer were heated only to 37° C. prior to loading on a gel. This assay is highly susceptible to concentration of lysate and HA-Ub-VS. Cell experiments were carried out as above with some modifications. For Cos-1 and MCF-7 cells, after trypsinization, media with compound was added to give a final concentration of compound equal to that used in the assay. Cell pellets were lysed on an ice/salt bath with a temperature of −5° C. and lysate was centrifuged for only 5 mins.
HA-Ub-VS is an irreversible inhibitor of DUBs that is widely used in activity profiling. If the DUB inhibitors react to form a thiocarbonylated enzyme as proposed (FIG. 29B), then HA-Ub-VS labeling will be blocked. Treatment of HEK 293T lysates with HA-Ub-VS produced the characteristic pattern of protein bands at 250, 150-100, 45, 38 and 36 kDa, generally ascribed to USP9x (292 kDa), USP19 (146 kDa), USP7/8 (128 and 127 kDa, respectively), USP28/15 (122 and 112 kDa, respectively), UCH-L5 (38 kDa), UCH-L3 (26 kDa) and UCH-L1 (25 kDa) as depicted in FIG. 31.
The effect of diphenylcarbonates on HA-Ub-VS labeling was assessed to investigate the selectivity of DUB inhibition. Lysates were preincubated with diphenyl carbonates (75 μM), then treated with HA-Ub-VS (FIG. 31A). […] These C17 and C22-sensitive DUBs are most likely USP9x, USP19, USP7/8 and UCHL5, based on molecular weight (FIGS. 31B and 38). The identity of USP7 was confirmed by immunoblotting (FIG. 38F). […] Similar behavior was observed on Cos-1 cell lysates (FIG. 38B).

[3] = 75 μM, 30 minutes preincubation

| SMILES | stabilization of the HMW-Ub pool ([1]; HEK 293T HA-Ub lysates, 37° C.) | HA-Ub-VS labeling of USPs ([2]; preincubation with G5) | DUB inhibitory activity, SAR in words [1] | HA-Ub-VS labeling of USPs [2, 3] | increase of inhibitory potency relative to C4 (factor) [1] | HA-Ub-VS labeling, dose response ([2]; at 12 μM) |
| --- | --- | --- | --- | --- | --- | --- |
| O=C1/C(=C/c2ccc([N+](=O)[O-])cc2)CS(=O)(=O)C/C1=C\c1ccc([N+](=O)[O-])cc1 [Compound G5, reference compound] | stabilized the HMW-Ub pool | decreased the labeling of all the USPs |  |  |  |  |
| NCc1ccc(OC(=O)Oc2cccc3ccccc23)cc1 [Compound C18] |  |  | improved potency relative to C4 | decreased HA-Ub-VS labeling of several USPs |  |  |
| NCc1ccc(OC(=O)Oc2ccc(Cl)cc2)cc1 [Compound C14, 4-(aminomethyl)phenyl(4-chlorophenol)carbonate] |  |  |  | decreased HA-Ub-VS labeling of several USPs | approximately 10 |  |
| NCc1ccc(OC(=O)Oc2ccc3ccccc3c2)cc1 [Compound C17] |  |  | improved potency relative to C4 | decreased HA-Ub-VS labeling of several USPs |  | significantly inhibited the labeling of several high molecular weight proteins |
| NCc1ccc(OC(=O)Oc2ccc(Br)cc2)cc1 [Compound C15, 4-(aminomethyl)phenyl(4-bromophenyl)carbonate] |  |  |  | decreased HA-Ub-VS labeling of several USPs | approximately 10 |  |
